Source: article PMC6001238, “Iterative Chemical Engineering of Vancomycin Leads to Novel Vancomycin Analogs With a High in Vitro Therapeutic Index” (Frontiers in Microbiology, 2018)
Values after ≈ are worked out from the molar mass of the structure shown.

Key:
[1] = test system: E. faecalis VSE 1; assay: MIC, broth microdilution, vancomycin-sensitive E. faecalis (VSE 1); assay type: cell-based, Enterococcus faecalis; conditions: for MIC: Enterococcus faecalis VSE 1 (vancomycin-sensitive), read-out: MIC; for MIC-fold improvement vs. vancomycin: VSE 1, ratio of MIC of vancomycin and MIC of analogue
How it was run: (§1)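 Serial dilutions in broth, set up per CLSI guidance, gave the MIC. Where noted, test analogues or comparator antibiotics were combined with vancomycin at 10 μM final. Controls: ultrapure water, broth without inoculum.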

[2] = test system: E. faecalis VRE 6; assay: MIC, broth microdilution, vancomycin-resistant E. faecalis VRE 6 (VanA); assay type: cell-based, Enterococcus faecalis; conditions: for MIC: Enterococcus faecalis VRE 6 (vancomycin-resistant), read-out: MIC; for MIC-fold improvement vs. vancomycin: VRE 6, ratio of MIC of vancomycin and MIC of analogue
How it was run: as §1

[3] = test system: E. faecalis VRE 53; assay: MIC, broth microdilution, vancomycin-resistant E. faecalis VRE 53 (VanA); assay type: cell-based, Enterococcus faecalis; conditions: for MIC: Enterococcus faecalis VRE 53 (vancomycin-resistant), read-out: MIC; for MIC-fold improvement vs. vancomycin: VRE 53, ratio of MIC of vancomycin and MIC of analogue
How it was run: as §1

[4] = test system: E. faecalis VRE 29; assay: MIC, broth microdilution, vancomycin-resistant E. faecalis VRE 29 (VanA); assay type: cell-based, Enterococcus faecalis; conditions: for MIC: Enterococcus faecalis VRE 29 (vancomycin-resistant), read-out: MIC; for MIC-fold improvement vs. vancomycin: VRE 29, ratio of MIC of vancomycin and MIC of analogue
How it was run: as §1

[5] = test system: E. faecalis VRE 37; assay: MIC, broth microdilution, vancomycin-resistant E. faecalis VRE 37 (VanA); assay type: cell-based, Enterococcus faecalis; conditions: for MIC: Enterococcus faecalis VRE 37 (vancomycin-resistant), read-out: MIC
How it was run: as §1

[6] = test system: Murine leukemia (L1210) cells; assay: Cytostatic activity, L1210 cell proliferation; assay type: cell-based; conditions: mean ± SD of three experiments; highest concentration tested 250 µM; 2 days; read-out: Toxicity (IC50) L1210
How it was run: (§2)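 Suspensions (300,000–500,000 cells/mL) combined with equal volumes of diluted compound; 37°C; L1210 2 d / CEM 3 d / HeLa 4 d; counted by Coulter counter; IC50 vs untreated wells.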

[7] = test system: human T-lymphocyte (CEM) cells; assay: Cytostatic activity, CEM cell proliferation; assay type: cell-based; conditions: mean ± SD of three experiments; highest concentration tested 250 µM; 3 days; read-out: Toxicity (IC50) CEM
How it was run: as §2

[8] = test system: human cervix carcinoma (HeLa) cells; assay: Cytostatic activity, HeLa cell proliferation; assay type: cell-based; conditions: mean ± SD of three experiments; highest concentration tested 250 µM; 4 days; read-out: Toxicity (IC50) HeLa
How it was run: as §2

[9] = test system: L1210, CEM and HeLa cell lines; assay: Cytostatic activity, average or summary over L1210, CEM and HeLa; assay type: cell-based; conditions: average of L1210, CEM and HeLa; read-out: Toxicity (IC50) Average
How it was run: as §2

[10] = test system: S. aureus VSSA (ATCC 6538); assay: MIC, broth microdilution, vancomycin-sensitive S. aureus (VSSA/MSSA, ATCC 6538); assay type: cell-based, Staphylococcus aureus; conditions: for MIC: Staphylococcus aureus VSSA, read-out: MIC; for MIC-fold improvement vs. vancomycin: VSSA, ratio of MIC of vancomycin and MIC of analogue
How it was run: as §1

[11] = test system: S. aureus VISA/HIP5827; assay: MIC, broth microdilution, vancomycin-intermediate S. aureus VISA HIP5827; assay type: cell-based, Staphylococcus aureus; conditions: for MIC: Staphylococcus aureus VISA/HIP5827, read-out: MIC; for MIC-fold improvement vs. vancomycin: VISA/HIP5827, ratio of MIC of vancomycin and MIC of analogue
How it was run: as §1

[12] = test system: S. aureus VRSA; assay: MIC, broth microdilution, vancomycin-resistant S. aureus (VRSA); assay type: cell-based, Staphylococcus aureus; conditions: for MIC: Staphylococcus aureus VRSA, read-out: MIC; for MIC-fold improvement vs. vancomycin: VRSA, ratio of MIC of vancomycin and MIC of analogue
How it was run: as §1

[13] = test system: MRSA KS2; assay: MIC, broth microdilution, MRSA KS2; assay type: cell-based, Staphylococcus aureus; conditions: for MIC-fold improvement vs. vancomycin: MRSA KS2, ratio of MIC of vancomycin and MIC of analogue; for MIC: Staphylococcus aureus MRSA KS2, read-out: MIC
How it was run: as §1

[14] = test system: MRSA KS6; assay: MIC, broth microdilution, MRSA KS6; assay type: cell-based, Staphylococcus aureus; conditions: for MIC-fold improvement vs. vancomycin: MRSA KS6, ratio of MIC of vancomycin and MIC of analogue; for MIC: Staphylococcus aureus MRSA KS6, read-out: MIC
How it was run: as §1

[15] = test system: MRSA KS89; assay: MIC, broth microdilution, MRSA KS89; assay type: cell-based, Staphylococcus aureus; conditions: for MIC-fold improvement vs. vancomycin: MRSA KS8, ratio of MIC of vancomycin and MIC of analogue; for MIC: Staphylococcus aureus MRSA KS8, read-out: MIC
How it was run: as §1

[16] = test system: MRSA KS1; assay: MIC, broth microdilution, MRSA KS1; assay type: cell-based, Staphylococcus aureus; conditions: for MIC-fold improvement vs. vancomycin: MRSA KS1, ratio of MIC of vancomycin and MIC of analogue; for MIC: Staphylococcus aureus MRSA KS1, read-out: MIC
How it was run: as §1

SMILES | MIC [1] | MIC-fold improvement vs. vancomycin [1] | MIC [2] | MIC-fold improvement vs. vancomycin [2] | MIC [3] | MIC-fold improvement vs. vancomycin [3] | MIC [4] | MIC-fold improvement vs. vancomycin [4] | MIC [5] | IC50 [6] | IC50 [7] | IC50 [8] | IC50 [9] | MIC [10] | MIC-fold improvement vs. vancomycin [10] | MIC [11] | MIC-fold improvement vs. vancomycin [11] | MIC [12] | MIC-fold improvement vs. vancomycin [12] | MIC-fold improvement vs. vancomycin [13] | further results
CNC(CC(C)C)C(=O)NC1C(=O)NC(CC(N)=O)C(=O)NC2C(=O)NC3C(=O)NC(C(=O)NC(C(=O)NCCCNC(=O)c4ccc(-c5ccccc5)cc4)c4cc(O)cc(O)c4-c4cc3ccc4O)C(O)c3ccc(c(Cl)c3)Oc3cc2cc(c3OC2OC(CO)C(O)C(O)C2OC2CC(C)(N)C(O)C(C)O2)Oc2ccc(cc2Cl)C1O (stereo not shown) [Vanc-33] | 0.20 µM (≈ 0.337 µg/mL) | 8 | 1.56 µM (≈ 2.63 µg/mL) | 128 | 25 µM (≈ 42.1 µg/mL) | 16 | 6.25 µM (≈ 10.5 µg/mL) | 64 | 12.5 µM (≈ 21.1 µg/mL) | 57 ± 20 µM | 78 ± 16 µM | 84 ± 8 µM | 73 µM | 0.20 µM (≈ 0.337 µg/mL) | 4 | 0.20 µM (≈ 0.337 µg/mL) | 32 | 0.78 µM (≈ 1.31 µg/mL) | 128 | 4 | MIC [13]: 0.20 µM (≈ 0.337 µg/mL); MIC-fold improvement vs. vancomycin [14]: 2; MIC [14]: 0.39 µM (≈ 0.657 µg/mL); MIC-fold improvement vs. vancomycin [15]: 2; MIC [15]: 0.39 µM (≈ 0.657 µg/mL); MIC-fold improvement vs. vancomycin [16]: 2; MIC [16]: 0.39 µM (≈ 0.657 µg/mL)
CN[C@H](CC(C)C)C(=O)N[C@H]1C(=O)N[C@@H](CC(N)=O)C(=O)N[C@H]2C(=O)N[C@H]3C(=O)N[C@H](C(=O)N[C@H](C(=O)NCC(=O)Nc4cc(C)cc(C)c4)c4cc(O)cc(O)c4-c4cc3ccc4O)[C@H](O)c3ccc(c(Cl)c3)Oc3cc2cc(c3O[C@@H]2O[C@H](CO)[C@@H](O)[C@H](O)[C@H]2O[C@H]2C[C@](C)(N)[C@H](O)[C@H](C)O2)Oc2ccc(cc2Cl)[C@H]1O [Vanc-11] | 0.39 µM (≈ 0.628 µg/mL) | 4 | 3.13 µM (≈ 5.04 µg/mL) | 64 | 12.5 µM (≈ 20.1 µg/mL) | 32 | 6.25 µM (≈ 10.1 µg/mL) | 32 | 12.5 µM (≈ 20.1 µg/mL) | > 250 µM | 196 ± 15 µM | 87 ± 9 µM | 178 µM | 0.78 µM (≈ 1.26 µg/mL) | 1 | 0.78 µM (≈ 1.26 µg/mL) | 8 | 12.5 µM (≈ 20.1 µg/mL) | 8 | 1 | MIC-fold improvement vs. vancomycin ([5]; VRE 37, ratio of MIC of vancomycin and MIC of analogue): 64; MIC [13]: 0.78 µM (≈ 1.26 µg/mL); MIC-fold improvement vs. vancomycin [14]: 2; MIC [14]: 0.39 µM (≈ 0.628 µg/mL); MIC-fold improvement vs. vancomycin [15]: 2; MIC [15]: 0.39 µM (≈ 0.628 µg/mL); MIC-fold improvement vs. vancomycin [16]: 1; MIC [16]: 0.78 µM (≈ 1.26 µg/mL)
